IC50 data for 2 compounds are collected here from US20030187059A1, “Methods and compounds useful in inhibiting oxidative and/or free radical damage and in the treatment and prevention of disease” (priority 2002, published 2003).

For this experiment, the system named is rat liver microsomes. Briefly: Inhibition of ferrous ion-stimulated formation of maliondialdehyde (lipid peroxidation) in rat liver microsomes. Type of experiment: biochemical. To be noted: ferrous sulfate 1 mM, 37° C. for 1 hour, test compound in DMSO, read-out: IC50, inhibition of production of MDA (as measured by the MDA-TBA adduct). As to the method: The in vitro antioxidant activity of Compound MH-1 was evaluated by measuring its inhibitory effect on the ferrous ion-stimulated formation of maliondialdehyde (“MDA”), an end product of lipid peroxidation, in rat liver microsomes. The antioxidant activity of Compound MH-1 was compared with the in vitro antioxidant activity of α-tocopherol, a known antioxidant. A modified procedure originally described in Bernheim et al., “The Reaction Between Thiobarbituric Acid and the Oxidation Products of Certain Lipids,” J. Biol. Chem., 174:257-264 (1948) and Wills, “Lipid Peroxide Formation in Microsomes,” Biochem. J., 113:325-332 (1969), which are hereby incorporated by reference, was used to carry out the assay.
Freshly harvested rat livers (100 mg/ml) were homogenized in Tris-KCl buffer (0.05M, pH 7.4). The microsomal fraction was isolated by differential centrifugation (40,000 rpm; 106,000 g) and resuspended in Tris-KCl (100 mg/ml, initial concentration). The microsomal suspension was incubated with or without the test compound (Compound MH-1 in DMSO, 0.0-0.5mM or α-tocopherol in dimethylsulfoxide, 0.0-0.6 mM) at 37° C. for 3 minutes. […] Maliondialdeyde-TBA adduct concentrations in the butanol extract were measured by fluorescence spectroscopy (emission 553 nm, excitation 532 nm). […]

The structures appear in SMILES notation.

As a reminder, the IC50 is the midpoint of a concentration-inhibition curve. For the compound `Cc1c(C)c2c(c(C)c1OC(=O)CCCC[C@@H]1CCSS1)CC[C@@](C)(CC[C@H](C)CCC[C@H](C)CCCC(C)C)O2` [Compound MH-1], the IC50 came to 266 µM.

Turning to `Cc1c(C)c2c(c(C)c1O)CC[C@@](C)(CCC[C@H](C)CCC[C@H](C)CCCC(C)C)O2` [α-tocopherol], the IC50 is 307 µM.
